Measurements taken from patent US12157730B2, “Heteroaryl derivative, method for producing same, and pharmaceutical composition comprising same as effective component” (VORONOI INC., priority 2019, dated 2024).
One block for each compound: values may come before it.

Molecular target: T1, Ba/F3 cell EGFR Exon20 ins NPH (Homo sapiens, UniProt P00533, INS773NPH)
T1 construct: expressed in transfected cells; host or cells: Ba/F3
Experiment: Ba/F3 cell proliferation suppression, EGFR Exon20 ins NPH
Assay type: cell-based
Settings: GI50 class; Ba/F3 cell line with NPH inserted at Exon20 of EGFR; 72 hours
Method in brief: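 Seed 3000–5000 cells/well; after 24 h add compound (12 conc., 0.3 nM–50 um final); incubate 72 h; add CellTiter-Glo, 10 min room temperature; read luminescence; GI50 from % growth vs control, triplicate.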

SMILES: C=CC(=O)Nc1cc(Nc2cc(N3OCC[C@@H]3c3ccc(C)nc3)ncn2)c(OC)cc1N1CCC(N2CCN(CC)CC2)CC1 [Example 41, N-(2-(4-(4-ethylpiperazine-1-yl)piperidine-1-yl)-4-methoxy-5-((6((R)-3-(6-methylpyridine-3-yl)isoxazolidine-2-yl)pyrimidine-4-yl)amino)phenyl) acrylamide]
Ba/F3 (NPH) Activity: B (50 nM ≤ GI50 < 500 nM)

SMILES: C=CC(=O)Nc1cc(Nc2cc(N3OCC[C@@H]3c3ccc(Cl)c(Cl)c3)ncn2)c(OC)cc1N1CCC(N2CCN(C3COC3)CC2)CC1 [compound 931, N-(5-((6-((R)-3-(3,4-dichlorophenyl)isoxazolidine-2-yl)pyrimidine-4-yl)amino)-4-methoxy-2-(4-(4-(oxetane-3-yl)piperazine-1-yl)piperidine-1-yl)phenyl) acrylamide]
Ba/F3 (NPH) Activity: A (GI50 < 50 nM)

SMILES: C=CC(=O)Nc1cc(Nc2cc(N3OCC[C@@H]3c3cccc(Cl)c3)ncn2)c(OC)cc1N1CC[C@@H](N2CCOCC2)C1 [compound 465, N-(5-((6-((R)-3-(3-chlorophenyl)isoxazolidine-2-yl)pyrimidine-4-yl)amino)-4-methoxy-2-((R)-3-morpholinopyrolidine-1-yl)phenyl)acrylamide]
Ba/F3 (NPH) Activity: A (GI50 < 50 nM)

SMILES: C=CC(=O)Nc1cc(Nc2cc(N3OCC[C@@H]3c3ccc(F)cc3)ncn2)c(OC)cc1N1CCC(N2C[C@@H](C)O[C@@H](C)C2)CC1 [compound 814, N-(2-(4-((2S,6R)-2,6-dimethylmorpholino)piperidine-1-yl)-5-((6-((R)-3-(4-fluorophenyl)isoxazolidine-2-yl)pyrimidine-4-yl)amino)-4-methoxyphenyl) acrylamide]
Ba/F3 (NPH) Activity: A (GI50 < 50 nM)

SMILES: C=CC(=O)Nc1cc(Nc2cc(N3OCC[C@@H]3Cc3ccccc3)ncn2)c(OC)cc1N1CCC(N2CCN(C)CC2)CC1 [compound 963, N-(5-((6-((S)-3-benzylisoxazolidine-2-yl)pyrimidine-4-yl)amino)-4-methoxy-2-(4-(4-methylpiperazine-1-yl)piperidine-1-yl)phenyl)acrylamide]
Ba/F3 (NPH) Activity: A (GI50 < 50 nM)

SMILES: C#Cc1cccc([C@H]2CCON2c2cc(Nc3cc(NC(=O)C=C)c(N4CCC(N5CCN(C)CC5)CC4)cc3OC)ncn2)c1 [compound 649, N-(5-((6-((R)-3-(3-ethynylphenyl)isoxazolidine-2-yl)pyrimidine-4-yl)amino)-4-methoxy-2-(4-(4-methylpiperazine-1-yl)piperidine-1-yl)phenyl) acrylamide]
Ba/F3 (NPH) Activity: A (GI50 < 50 nM)

SMILES: C=CC(=O)Nc1cc(Nc2cc(N3OCC[C@@H]3c3c(F)ccc(F)c3Cl)ncn2)c(OC)cc1N1CCN(C2CC2)CC1 [compound 691, N-(5-((6-((R)-3-(2-chloro-3,6-difluorophenyl)isoxazolidine-2-yl)pyrimidine-4-yl)amino)-2-(4-cyclopropylpiperazine-1-yl)-4-methoxyphenyl) acrylamide]
Ba/F3 (NPH) Activity: B (50 nM ≤ GI50 < 500 nM)

SMILES: C=CC(=O)Nc1cc(Nc2cc(N3OCC[C@@H]3c3ccc4ccccc4c3)ncn2)c(OC)cc1N1CCC(N2CCN(C(C)=O)CC2)CC1 [compound 556, N-(2-(4-(4-acetylpiperazine-1-yl)piperidine-1-yl)-4-methoxy-5-((6-((R)-3-(naphthalene-2-yl)isoxazolidine-2-yl)pyrimidine-4-yl)amino)phenyl) acrylamide]
Ba/F3 (NPH) Activity: B (50 nM ≤ GI50 < 500 nM)

SMILES: C=CC(=O)Nc1cc(Nc2cc(N3OCC[C@@H]3Cc3cccc(Cl)c3Cl)ncn2)c(OC)cc1N1CC[C@@H](N(C)C)C1 [compound 984, N-(5-((6-((S)-3-(2,3-dichlorobenzyl)isoxazolidine-2-yl)pyrimidine-4-yl)amino)-2-((R)-3-(dimethylamino)pyrolidine-1-yl)-4-methoxyphenyl) acrylamide]
Ba/F3 (NPH) Activity: A (GI50 < 50 nM)

SMILES: C=CC(=O)Nc1cc(Nc2cc(N3OCC[C@@H]3c3ccccc3)ncn2)c(OC)cc1N1CCC(N2CCC(N(C)C)CC2)CC1 [compound 740, N-(2-(4-(dimethylamino)-[1,4'-bipiperidine]-1'-yl)-4-methoxy-5-((6-((R)-3-phenylisoxazolidine-2-yl)pyrimidine-4-yl)amino)phenyl)acrylamide]
Ba/F3 (NPH) Activity: A (GI50 < 50 nM)

SMILES: C=CC(=O)Nc1cc(Nc2cc(N3OCC[C@@H]3c3ccc(C)nc3)ncn2)c(OC)cc1N1CCC(N2CCN(C)CC2)CC1 [Example 47, N-(4-methoxy-2-(4-(4-methylpiperazine-1-yl)piperidine-1-yl)-5-((6((R)-3-(6-methylpyridine-3-yl)isoxazolidine-2-yl)pyrimidine-4-yl)amino)phenyl) acrylamide]
Ba/F3 (NPH) Activity: B (50 nM ≤ GI50 < 500 nM)

SMILES: C=CC(=O)Nc1cc(Nc2cc(N3OCC[C@@H]3c3ccc(Cl)cc3)ncn2)c(OC)cc1N1CC[C@H](N2CCOCC2)C1 [compound 734, N-(5-((6-((R)-3-(4-chlorophenyl)isoxazolidine-2-yl)pyrimidine-4-yl)amino)-4-methoxy-2-((S)-3-morpholinopyrolidine-1-yl)phenyl)acrylamide]
Ba/F3 (NPH) Activity: B (50 nM ≤ GI50 < 500 nM)

More lines, now with the values ahead:

Ba/F3 (NPH) Activity: A (GI50 < 50 nM)
SMILES: C=CC(=O)Nc1cc(Nc2cc(N3OCC[C@@H]3c3cccc(Cl)c3C)ncn2)c(OC)cc1N1CCC(N2C[C@H]3C[C@@H]2CO3)CC1 [compound 532, N-(2-(4-((1R,4R)-2-oxa-5-azabicyclo[2.2.1]heptane-5-yl)piperidine-1-yl)-5-((6-((R)-3-(3-chloro-2-methylphenyl)isoxazolidine-2-yl)pyrimidine-4-yl)amino)-4-methoxyphenyl) acrylamide]

Ba/F3 (NPH) Activity: A (GI50 < 50 nM)
SMILES: C=CC(=O)Nc1cc(Nc2cc(N3OCC[C@@H]3c3cccc(C)c3F)ncn2)c(OC)cc1N1CCC(N2CC[C@H](N(C)C)C2)CC1 [compound 910, N-(2-(4-((S)-3-(dimethylamino)pyrolidine-1-yl)piperidine-1-yl)-5-((6-((R)-3-(2-fluoro-3-methylphenyl)isoxazolidine-2-yl)pyrimidine-4-yl)amino)-4-methoxyphenyl) acrylamide]

Ba/F3 (NPH) Activity: B (50 nM ≤ GI50 < 500 nM)
SMILES: C=CC(=O)Nc1cc(Nc2cc(N3OCC[C@@H]3c3cccc(Cl)c3Cl)ncn2)c(OC)cc1N1CCN(C2CCN(C)CC2)CC1 [compound 562, N-(5-((6-((R)-3-(2,3-dichlorophenyl)isoxazolidine-2-yl)pyrimidine-4-yl)amino)-4-methoxy-2-(4-(1-methylpiperidine-4-yl)piperazine-1-yl)phenyl) acrylamide]

Ba/F3 (NPH) Activity: A (GI50 < 50 nM)
SMILES: C=CC(=O)Nc1cc(Nc2cc(N3OCC[C@@H]3c3cccc(Cl)c3F)ncn2)c(OC)cc1N1CCC(N2C[C@H]3C[C@@H]2CO3)CC1 [Example 258, N-(2-(4-((1R,4R)-2-oxa-5-azabicyclo [2.2.1]heptane-5-yl)piperidine-1-yl)-5-((6-((R)-3-(3-chloro-2-fluorophenyl)isoxazolidine-2-yl)pyrimidine-4-yl)amino)-4-methoxyphenyl) acrylamide]

Ba/F3 (NPH) Activity: A (GI50 < 50 nM)
SMILES: C=CC(=O)Nc1cc(Nc2cc(N3OCC[C@@H]3c3cccc(Cl)c3F)ncn2)c(OC)cc1N1CCC(N2CCOCC2)CC1 [compound 788, N-(5-((6-((R)-3-(3-chloro-2-fluorophenyl)isoxazolidine-2-yl)pyrimidine-4-yl)amino)-4-methoxy-2-(4-morpholinopiperidine-1-yl)phenyl)acrylamide]

Ba/F3 (NPH) Activity: A (GI50 < 50 nM)
SMILES: C=CC(=O)Nc1cc(Nc2cc(N3OCC[C@@H]3c3cccc(Cl)c3Cl)ncn2)c(OC)cc1N1CCC(N(C)C)CC1 [compound 476, N-(5-((6-((R)-3-(2,3-dichlorophenyl)isoxazolidine-2-yl)pyrimidine-4-yl)amino)-2-(4-(dimethylamino)piperidine-1-yl)-4-methoxyphenyl) acrylamide]

Ba/F3 (NPH) Activity: A (GI50 < 50 nM)
SMILES: C=CC(=O)Nc1cc(Nc2cc(N3OCC[C@@H]3c3ccc(F)c(Cl)c3)ncn2)c(OC)cc1N1CCC(N2C[C@H]3CC[C@@H](C2)O3)CC1 [compound 871, N-(2-(4-((1R,5S)-8-oxa-3-azabicyclo [3.2.1]octan-3-yl)piperidine-1-yl)-5-((6-((R)-3-(3-chloro-4-fluorophenyl)isoxazolidine-2-yl)pyrimidine-4-yl)amino)-4-methoxyphenyl) acrylamide]

Ba/F3 (NPH) Activity: A (GI50 < 50 nM)
SMILES: C=CC(=O)Nc1cc(Nc2cc(N3OCC[C@@H]3c3cc(F)cc(F)c3)ncn2)c(OC)cc1N1CCC(N2CCOC[C@@H]2C)CC1 [compound 843, N-(5-((6-((R)-3-(3,5-difluorophenyl)isoxazolidine-2-yl)pyrimidine-4-yl)amino)-4-methoxy-2-(4-((S)-3-methylmorpholino)piperidine-1-yl)phenyl) acrylamide]

Ba/F3 (NPH) Activity: A (GI50 < 50 nM)
SMILES: C=CC(=O)Nc1cc(Nc2cc(N3OCC[C@@H]3c3cccc(Cl)c3Cl)ncn2)c(OC)cc1N1CCC(N2CCN(C3CCOCC3)CC2)CC1 [Example 208, N-(5-((6-((R)-3-(2,3-dichlorophenyl)isoxazolidine-2-yl)pyrimidine-4-yl)amino)-4-methoxy-2-(4-(4-(tetrahydro-2H-pyran-4-yl)piperazine-1-yl)piperidine-1-yl)phenyl)acrylamide]

Ba/F3 (NPH) Activity: A (GI50 < 50 nM)
SMILES: C=CC(=O)Nc1cc(Nc2cc(N3OCC[C@@H]3c3cccc(Cl)c3C)ncn2)c(OC)cc1N1CCC(N2CCN(CC)CC2)CC1 [compound 487, N-(5-((6-((R)-3-(3-chloro-2-methylphenyl)isoxazolidine-2-yl)pyrimidine-4-yl)amino)-2-(4-(4-ethylpiperazine-1-yl)piperidine-1-yl)-4-methoxyphenyl) acrylamide]

Ba/F3 (NPH) Activity: A (GI50 < 50 nM)
SMILES: C=CC(=O)Nc1cc(Nc2cc(N3OCC[C@@H]3c3ccc(F)cc3F)ncn2)c(OC)cc1N1C[C@@H]2C[C@H]1CO2 [compound 324, N-(2-((1S,4S)-2-oxa-5-azabicyclo[2.2.1]heptane-5-yl)-5-((6-((R)-3-(2,4-difluorophenyl)isoxazolidine-2-yl)pyrimidine-4-yl)amino)-4-methoxyphenyl) acrylamide]
